Measured values reported in patent US20060019284A1, “Identification of polynucleotides for predicting activity of compounds that interact with and/or modulate protein tyrosine kinases and/or protein tyrosine kinase pathways in lung cancer cells” (priority 2004, published 2006).

Key:
[1] = system: H522 lung cell line; assay: In vitro cytotoxicity assay (MTS), IC50 determination; assay type: cell-based, human; settings: H522 cells
Description: (§1) Cytotoxicity was assessed in cells by the MTS (3-(4,5-dimethylthiazol-2-yl)-5-(3-carboxy-methoxyphenyl)-2-(4-sulphenyl)-2H-tetrazolium, inner salt) assay (T. L. Riss et al., 1992, Mol. Biol. Cell, 3 (Suppl.): 184a).
(§2) To carry out the assays, the lung cells were plated at 4,000 cells/well in 96 well microtiter plates, and 24 hours later, serially diluted drugs were added. The concentration range for the protein tyrosine kinase inhibitor compound BMS-A used in the cytotoxicity assay was from 5 μg/ml to 0.0016 μg/ml (roughly 10 μM to 0.0032 μM).
(§3) The cells were incubated at 37° C. for 72 hours at which time the tetrazolium dye, MTS (333 μg/ml final concentration), in combination with the electron coupling agent phenazine methosulfate (25 μM final concentration), was added. A dehydrogenase enzyme in live cells reduces the MTS to a form that absorbs light and can be quantified spectrophotometrically at 492 nM. The greater the absorbency the greater the number of live cells. The results are expressed as an IC50, which is the drug concentration required to inhibit cell proliferation (i.e. absorbance at 492 nm) to 50% of that of untreated control cells. The mean IC50 and standard deviation (SD) from multiple tests for each cell line were calculated.
(§4) The mean IC50 of the BMS-A protein tyrosine kinase inhibitor compound across the 23 human lund cell lines was calculated. […]

[2] = system: H2347 lung cell line; assay: as above; assay type: cell-based, human; settings: H2347 cells, 72 hours, mean of 4 tests, read-out: Mean IC50 (uM) to BMS-A
Description: as §1, §2, §3, §4

[3] = system: panel of twenty-three human lung cell lines; assay: In vitro cytotoxicity assay (MTS), whole panel; assay type: cell-based; settings: across the 23 lung cell lines
Description: as §1, §2, §3, §4

[4] = system: A549 cells; assay: Drug (BMS-A) treatment of A549 cells and expression profiling (HG-U133 arrays); assay type: cell-based, human; settings: A549, 0.4 μM, 4 and 24 hours
Description: To identify polynucleotides regulated by a protein tyrosine kinase inhibitor compound, e.g., BMS-A, a lung cell line A549 was treated with or without the BMS-A compound (0.4 μM) in 0.1% DMSO for 4 and 24 hours. Expression profiling was performed, and the data were analyzed using GeneChip® Expression Analysis software MAS 5.0 (Affymetrix, Santa Clara, Calif.). The polynucleotide expression of a cell line treated with drug was compared using pair-wise analysis to the polynucleotide expression of the cell line without drug treatment. A change in p-value was calculated, indicating an increase, decrease or no change in polynucleotide expression. When the p-value was less than 0.0025, the change was considered significant. Duplicated experiments were performed, and analysis of 4 cross comparisons were performed.
The lung cells were grown under standard cell culture conditions: RPMI 1640 supplemented to contain 10% fetal bovine serum, 100 IU/ml penicillin, […] streptomycin, 2 mM L-glutamine and 10 mM Hepes (all from GibcoBRL, Rockville, Md.). RNA was isolated from the cultured cells, either treated or untreated with drug (i.e., the protein tyrosine kinase inhibitor compound) at 50-70% confluence using the RNeasy™ kits commercially available from Qiagen, Valencia, Calif. The quality of the RNA was assessed by measuring the 28s:18s ribosomal RNA ratio using an Agilent 2100 bioanalyzer (Agilent Technologies, Rockville, Md.). The concentration of total RNA was determined spectrophotometrically. 10 μg of total RNA from each cell line was used to prepare biotinylated probe according to the Affymetrix Genechip® Expression Analysis Technical Manual, 2001. Targets were hybridized to Affymetrix high density oligonucleotide array human HG-U133 set chips (Affymetrix, Santa Clara, Calif.). The arrays were then washed and stained using the GeneChip® Fluidics station according to the manufacture's instructions (Affymetrix Genechip® Technical Manual, 2001). The HG-U133 set contains 2 Genechip® arrays, which contain approximately 45,000 probe sets representing more than 39,000 transcripts derived from approximately 33,000 well-substantiated human polynucleotides.
A549 cells were seeded in a 10 cm^2 culture plate in cell culture medium as described herein and were cultured for 24 hours at 37° C. The medium was then changed to medium containing drug (0.4 μM BMS-A compound in 0.1% DMSO, Sigma); the cells were incubated for 4 hour or 24 hours, and then lysed for RNA isolation. The expression profiling was performed as described above and data were analyzed using GeneChip® Expression Analysis software MAS 5.0 (Affymetrix, Santa Clara, Calif.). The expression data of a drug treated cell line was compared pair-wise to data from the same cell line untreated with drug. A change in p-value was calculated, indicating an increase, decrease or no change in polynucleotide expression. When the p-value was less than 0.0025, the change was considered to be significant. This analysis was performed for duplicated experiments

[5] = system: H23 lung cell line; assay: In vitro cytotoxicity assay (MTS), IC50 determination; assay type: cell-based, human; settings: H23 cells, 72 hours, mean of 4 tests, read-out: Mean IC50 (uM) to BMS-A
Description: as §1, §2, §3, §4

[6] = system: Sk-LU-1 lung cell line; assay: as above; assay type: cell-based, human; settings: Sk-LU-1 cells
Description: as §1, §2, §3, §4

[7] = system: H226 lung cell line; assay: as above; assay type: cell-based, human; settings: H226 cells
Description: as §1, §2, §3, §4

[8] = system: SK-MES-1 lung cell line; assay: as above; settings: SK-MES-1 cells
Description: as §1, §2, §3, §4

[9] = system: H838 lung cell line; assay: as above; assay type: cell-based, human; settings: H838 cells
Description: as §1, §2, §3, §4

[10] = system: L2987 lung cell line; assay: as above; assay type: cell-based, human; settings: L2987 cells
Description: as §1, §2, §3, §4

[11] = system: SW900 lung cell line; assay: as above; assay type: cell-based, human; settings: SW900 cells
Description: as §1, §2, §3, §4

[12] = system: NCI-H596 lung cell line; assay: as above; assay type: cell-based, human; settings: NCI-H596 cells
Description: as §1, §2, §3, §4

[13] = system: H661 lung cell line; assay: as above; assay type: cell-based, human; settings: H661 cells
Description: as §1, §2, §3, §4

[14] = system: H441 lung cell line; assay: as above; assay type: cell-based, human; settings: H441 cells
Description: as §1, §2, §3, §4

[15] = system: H1155 lung cell line; assay: as above; assay type: cell-based, human; settings: H1155 cells, 72 hours, mean of 3 tests, read-out: Mean IC50 (uM) to BMS-A
Description: as §1, §2, §3, §4

[16] = system: SW1271 lung cell line; assay: as above; assay type: cell-based, human; settings: SW1271 cells
Description: as §1, §2, §3, §4

[17] = MTS, 72 hours, mean of 3 tests, read-out: Mean IC50 (uM) to BMS-A
[18] = IC50 relative to mean IC50 of all 23 cell lines
[19] = MTS, 72 hours, mean of 4 tests, read-out: Mean IC50 (uM) to BMS-A
[20] = MTS, 72 hours, mean of 2 tests, read-out: Mean IC50 (uM) to BMS-A

In the case of `Cc1nc(Nc2ncc(C(=O)Nc3c(C)cccc3Cl)s2)cc(N2CCN(CCO)CC2)n1` [BMS-A, N-(2-chloro-6-methylphenyl)-2-[[6-[4-(2-hydroxyethyl)-1-piperazinyl]-2-methyl-4-pyrimidinyl]amino]-5-thiazolecarboxamide], the IC50 [1, 17] is reported as 0.215 µM, the Classification [1, 18] is reported as “Sensitive (cell lines having an IC50 below the mean IC50 were defined as sensitive to the compound)” and the IC50 [2] is reported as ≥ 1.02 µM. The “variation in the IC50 values among the twenty-three lung cell lines” value [3] was > 100 fold, the “Modulated by BMS-A” value ([4]; Gene No. 12 peroxisomal biogenesis factor 6 (NM_000287)) was “Yes” and the “Modulated by BMS-A” value ([4]; Gene No. 24 cysteine-rich, angiogenic inducer, 61 (NM_001554)) was “Yes”. The “Modulated by BMS-A” value ([4]; Gene No. 26 fibroblast growth factor 2 (basic) (NM_002006)) was “Yes”, the “Modulated by BMS-A” value ([4]; Gene No. 35 polymerase I and transcript release factor (NM_012232)) was “Yes” and the “Modulated by BMS-A” value ([4]; Gene No. 39 ESTs, Weakly similar to hypothetical protein FLJ20489 (AI004009)) was “Yes”. For the same compound, the “Modulated by BMS-A” value ([4]; Gene No. 45 Rho GDP dissociation inhibitor (GDI) beta (NM_001175)) was “Yes”, the “Modulated by BMS-A” value ([4]; Gene No. 47 FOS-like antigen 1 (NM_005438)) was “Yes” and the “Modulated by BMS-A” value ([4]; Gene No. 58 collagen, type VI, alpha 1 (NM_001848)) was “Yes”. For the same compound, the “Modulated by BMS-A” value ([4]; Gene No. 64 KIAA1237 protein (AI148659)) was “Yes”, the “Modulated by BMS-A” value ([4]; Gene No. 69 a disintegrin-like and metalloprotease (reprolysin type) with thrombospondin type 1 motif, 1 (NM_006988)) was “Yes” and the “Modulated by BMS-A” value ([4]; Gene No. 72 serum-inducible kinase (NM_006622)) was “Yes”. For the same compound, the “Modulated by BMS-A” value ([4]; Gene No. 90 hypothetical protein FLJ20607 (NM_017899)) was “Yes”, the “Modulated by BMS-A” value ([4]; Gene No. 98 germ cell specific Y-box binding protein (NM_015982)) was “Yes” and the “Modulated by BMS-A” value ([4]; Gene No. 105 J domain containing protein 1 (NM_021800)) was “Yes”. The “Modulated by BMS-A” value ([4]; Gene No. 110 inhibitor of DNA binding 2, dominant negative helix-loop-helix protein (NM_002166)) was “Yes”, the “Modulated by BMS-A” value ([4]; Gene No. 115 neuronal cell adhesion molecule (NM_005010)) was “Yes” and the IC50 [5] was ≥ 1.02 µM. The IC50 [6, 19] was 0.014 µM, the Classification [6, 18] was “Sensitive (cell lines having an IC50 below the mean IC50 were defined as sensitive to the compound)” and the IC50 [7, 17] was 0.058 µM. The Classification [7, 18] was “Sensitive (cell lines having an IC50 below the mean IC50 were defined as sensitive to the compound)”, the Classification [8, 18] was “Sensitive (cell lines having an IC50 below the mean IC50 were defined as sensitive to the compound)” and the IC50 ([8]; read-out: Mean IC50 (uM) to BMS-A, MTS, 72 hours, mean of 3 tests) was 0.151 µM. For the same compound, the IC50 [9, 19] was 0.072 µM, the Classification [9, 18] was “Sensitive (cell lines having an IC50 below the mean IC50 were defined as sensitive to the compound)” and the IC50 [10, 19] was 0.037 µM. The Classification [10, 18] was “Sensitive (cell lines having an IC50 below the mean IC50 were defined as sensitive to the compound)”, the IC50 [11, 17] was 0.507 µM and the Classification [11, 18] was “Sensitive (cell lines having an IC50 below the mean IC50 were defined as sensitive to the compound)”. For the same compound, the IC50 [12, 20] was 0.124 µM, the Classification [12, 18] was “Sensitive (cell lines having an IC50 below the mean IC50 were defined as sensitive to the compound)” and the IC50 [13, 19] was 0.123 µM. The Classification [13, 18] was “Sensitive (cell lines having an IC50 below the mean IC50 were defined as sensitive to the compound)”, the IC50 [14, 19] was 0.141 µM and the Classification [14, 18] was “Sensitive (cell lines having an IC50 below the mean IC50 were defined as sensitive to the compound)”. The IC50 [15] was ≥ 1.02 µM, the IC50 [16, 20] was 0.242 µM and the Classification [16, 18] was “Sensitive (cell lines having an IC50 below the mean IC50 were defined as sensitive to the compound)”.
